Assay results as given in patent US11517597B2, “Method for improving skin condition with postbiotic extract” (CHAMBIO CO., LTD., priority 2020, dated 2022).

Legend:
Hs68 cells [1] = test: Proliferation of Hs68 cells (MTT, OD570 converted to cell number); type: cell-based, Human; conditions: 24 hours
Experimental: (§1) • 2. Human foreskin fibroblast cell line Hs68 was purchased from the Bioresource Collection and Research Center of the Food Industry Research and Development Institute (BCRC of FIRDI, Taiwan). Hs68 cells were grown in a 10-cm Petri dish containing Dulbecco's Modified Eagle's Medium (DMEM) (Thermo Fisher Scientific) supplemented with 10% fetal bovine serum (FBS). The Hs68 cells were cultivated in an incubator with culture conditions set at 37° C. and 5% CO2. Medium change was performed every two to three days. Cell passage was performed when the cultured cells reached 80%-90% of confluence. • 3.
Hs68 cells were divided into 3 groups, including one control group and two experimental groups (i.e., experimental groups L and B). Each group of the Hs68 cells was incubated in a respective well of a 96-well culture plate containing 200 μL of DMEM at 1×10^4 cells/well, followed by cultivation in an incubator (37° C., 5% CO2) for 24 hours. […] The cell culture of the control group received no treatment.
After cultivation in an incubator (37° C., 5% CO2) for 24 hours, the respective resultant cell culture was stained with 3-(4,5-Dimethylthiazol-2-yl)-2,5-diphenyltetrazolium bromide (MTT), followed by subjecting the stained cells to determination of absorbance at a wavelength of 570 nm by a spectrophotometer. The OD570 values obtained were subsequently converted to cell numbers based on a correlation curve previously prepared by plotting different known cell numbers of Hs68 cells versus their OD570 values.
(§2) Hs68 cells were divided into 28 groups, including fourteen comparative groups (i.e., comparative groups 1 L to 7 L and 1H to 7H) and fourteen experimental groups (i.e., experimental groups 1 L to 7 L and 1B to 7B). Each group of the Hs68 cells was incubated in a respective well of a 96-well culture plate containing 200 μL of DMEM at 1×10^4 cells/well, followed by cultivation in an incubator (37° C., 5% CO2) for 24 hours.
After cultivation in an incubator (37° C., 5% CO2) for 24 hours, the cell number of each group was determined according to the method described in section C of this example. The fold increase of viable cells was calculated using the following Equation (II): C=D/E (II) where C=fold increase of viable cells • D=cell number of respective experimental group or comparative group • E=cell number of corresponding comparative group 1 L, 2 L, 3 L, 4 L, 5 L, 6 L, or 7 L

Hs68 cells [2] = test: TGF-β content of Hs68 cells (ELISA); type: cell-based, Human; conditions: 24 hours
Experimental: as §1
General Procedures: • 1. Determination of transforming growth factor-β (TGF-β) content
The TGF-β content was determined using an enzyme-linked immunosorbent assay (ELISA) kit (Cat. No. 559119, BD Biosciences) in accordance with the manufacturer's instructions.
Hs68 cells were divided into 25 groups, including one control group, twelve comparative groups (i.e., comparative groups L-1 to L-6 and B-1 to B-6), and twelve experimental groups (i.e., experimental groups L-1 to L-6 and B-1 to B-6). Each group of the Hs68 cells was incubated in a respective well of a 96-well culture plate containing 200 μL of DMEM at 1×10^4 cells/well, followed by cultivation in an incubator (37° C., 5% CO2) for 24 hours. […] The cell culture of the control group received no treatment.
After cultivation in an incubator (37° C., 5% CO2) for 24 hours, the respective resultant cell culture was subjected to the determination of TGF-β content according to the method described in section 1 of “General Procedures”.
as §2

[3] = nutritional component only 100 mg/L (the reference group of Equation II)
[4] = nutritional component only 200 mg/L, relative to 100 mg/L group
[5] = nutritional component only 100 mg/L
[6] = nutritional component only 200 mg/L

Compound	Fold increase of viable Cells (Hs68 cells [1]; [3])	Fold increase of viable Cells (Hs68 cells [1]; [4])	TGF-β content (Hs68 cells [2]; [5]) [pg/mL]	TGF-β content (Hs68 cells [2]; [6]) [pg/mL]
N[C@H]1C(O)O[C@H](CO)[C@@H](O)[C@@H]1O (stereo partly drawn) [Glucosamine]	1.0	1.1	51.1	61.3
O=C1O[C@H]([C@@H](O)CO)C(O)=C1O [Vitamin C]	1.0	1.1	52.2	63.1
Chondroitin	1.0	1.1	120.5	128.8
